This note sets out measurements from ChEMBL document CHEMBL3507680, “University of Dundee, Gates Library screen for HepG2 cell viability”.

A short description of the data set: Human HepG2 cell viability assay in 384 well format. The format is toxicity, cell-based. Also on record: dose 125 nL, time 70.5 hour; cytotoxicity at 70.5 h: concentration not given beside the values. To be noted: HepG2 cells, read-out: Inhibition.

`N#Cc1ccccc1NC(=O)c1ccc2c(c1)OCO2`: the cytotoxicity at 70.5 h is -0.874%.
The same measure for `CC(C)c1nc(O)c2nnn(C[C@H]3CCCN(Cc4ccsc4)C3)c2n1`: -1.06%; for `CCN1CCCC1CNCc1cc2cc(OC)ccc2[nH]c1=O` (configuration not stated): -0.0295%.
With `COc1cccc(CCC2CCCCN2)c1` (configuration not stated), the cytotoxicity at 70.5 h came out at 0.0655%.
With `CC(C)(C)OC(=O)N1CCN(c2cccnc2)CC1C(=O)O` (configuration not stated) the figure was -0.358%; with `CN(C)C(=O)c1c[nH]nc1C1CCN(S(=O)(=O)c2ccc(Cl)cc2)CC1`, 17.9%.
For the molecule `CC(=O)N1CCC(c2nccnc2CNC(=O)c2cc[nH]n2)CC1`, the cytotoxicity at 70.5 h was -4.85%.
Consider `CN(C(=O)c1cc(F)ccc1F)[C@@H]1CC[C@@H](O)[C@@H]1O`, for which the cytotoxicity at 70.5 h was -2.95%.
The same measure for `CNC(=O)C1CCCN(C(=O)c2ccccc2-n2cc(CN)cn2)C1` (configuration not stated): 2.43%.
The same measure for `CO[C@@H]1CCC[C@@H](N(C)C(=O)c2cc(F)ccc2F)[C@H]1O`: -3.32%; for `Cc1noc(C)c1CCC(=O)N[C@@H]1CCC[C@@H](Oc2cccnc2)[C@@H]1O`: -3.39%.
The same measure for `Cc1noc(C2(C)CCN(C(=O)C(C)C)CC2)n1`: -5.14%; for `CCC(CC)N1CCC(c2[nH]ncc2S(C)(=O)=O)C1` (configuration not stated): -5.29%; for `CN(C)C(=O)C1(C)CN(Cc2cn(C)c3ccccc23)CCO1` (configuration not stated): -4.04%.
For the molecule `CC(C)(C)CN1CCC(c2nccnc2Nc2cnccn2)CC1`, the cytotoxicity at 70.5 h was -1.64%.
The same measure for `Cc1c(CCC(=O)N2CCCC2c2ccnc(N(C)C)c2)cnn1C` (configuration not stated): -1.8%; for `Cc1cc(CN2CCc3nc(C(C)C)nc(O)c3CC2)c(C)s1`: -0.545%; for `NC(=O)c1cn[nH]c1C1CCCN1C(=O)COc1ccccc1` (configuration not stated): -3.18%.
The same measure for `CN(C)C(=O)c1c[nH]nc1C1CCN(S(=O)(=O)c2cccc(Cl)c2)CC1`: 9.14%; for `O=C(CC1CC1)N1CCC(O)(CN2CCN(c3ccccc3)CC2)C1` (configuration not stated): 5.49%.
With `Cc1nc(C)c(C(=O)N2CCCC2(C)C(=O)NC2CCCC2)s1` (configuration not stated) the figure was -3.63%.
Consider `Cc1ccc(-c2cc(C)nc(C3CCCN3S(C)(=O)=O)n2)cc1` (configuration not stated), for which the cytotoxicity at 70.5 h is -8.04%.
As for `O=C(Nc1ccc(Cl)cn1)c1cncc(C2CCNCC2)n1`, the cytotoxicity at 70.5 h is -7.54%.
`Cc1ccc(-c2nnc(CNC(=O)c3cccnc3)o2)cn1`: the cytotoxicity at 70.5 h was -16.3%.
With `Cc1cncnc1C1CCN(C(=O)CN(C)C)CC1` the figure was -8.84%.
`Cc1cc(N(C)C)nc(N2CCn3c(C)nnc3C2)n1`: the cytotoxicity at 70.5 h is -17.7%.
The same measure for `CS(=O)(=O)CCN1CCSCC1c1ccc(Cl)cc1` (configuration not stated): -1.17%; for `CCc1cc(CNC(=O)c2cc(NC(=O)C(C)C)ccc2Cl)[nH]n1`: -9.06%; for `CC(C)OCCS(=O)(=O)N1CCN(Cc2ccco2)CC1`: -4.45%.
With `CNC(=O)Cc1ccc(NC(=O)NCc2nc(C)sc2C)cc1` the figure was 13.2%; with `CCN(C)S(=O)(=O)N1CCC(C(O)c2ccc(Cl)cc2)CC1` (configuration not stated), -8.06%; with `Cc1cn2c(n1)C(CNCc1cnn3ccccc13)CCC2` (configuration not stated), -5.6%.
With `CCS(=O)(=O)Nc1ccc2[nH]c(C3CCC3)nc2c1` the figure was -6.11%.
In the case of `Cc1cc(N(C)C)nc(N2CCn3c(nnc3C(C)C)C2)n1`, the cytotoxicity at 70.5 h turned out to be 13.6%.
The same measure for `CC(C)Cc1cc(C(=O)N2CCC(Cc3cnn(C)c3)C2)cc(O)n1` (configuration not stated): -11.1%; for `CN(CC(=O)N(C)C(c1cccnc1)c1ccc(F)c(F)c1)C1CC1` (configuration not stated): 22.6%; for `COCCNC(=O)N1CCC(NC(C)C)CC1`: 5.14%.
As to `Cc1oc(C)c(C(=O)Nc2ccccn2)c1C`, the cytotoxicity at 70.5 h was -10.7%.
The same measure for `O=S(=O)(CCCn1cncn1)Cc1ccccc1Cl`: -6.92%.
The same measure for `CN(CCOc1ccccc1Cl)S(=O)(=O)N1CCOCC1`: -7.93%; for `CC(NC(=O)c1ccoc1)C(=O)N(C)Cc1ccsc1` (configuration not stated): -5.45%.
The same measure for `CCNC(=O)C(C)(C)NC(=O)NCc1cccc(Br)c1`: -8.53%.
Take `COc1cc(C#N)ccc1OCC(=O)N(C1CC1)C(C)c1ccco1` (configuration not stated): the cytotoxicity at 70.5 h was -9.56%.
The same measure for `COCCNC(=O)N1CCN(C(C)C(=O)NC(C)C)CC1` (configuration not stated): -5.13%; for `Cc1ccc(=O)n(Cc2nc(C(C)OCC(C)C)no2)n1` (configuration not stated): 3.26%.
`CC(C)(NS(C)(=O)=O)C(=O)NCc1cccc(Br)c1`: the cytotoxicity at 70.5 h is -7.07%.
Regarding `COCCNC(=O)N1CCN(C(C)C(=O)NC2CCCC2)CC1` (configuration not stated), the cytotoxicity at 70.5 h is -5.61%.
With `CCC(CC)c1cc(C(=O)N2CCN(C(C)C(N)=O)CC2)on1` (configuration not stated) the figure was -7.02%.
With `CCOc1nnc(CN2CCCC(c3nc4ccccc4[nH]3)C2)s1` (configuration not stated), the cytotoxicity at 70.5 h is -3.56%.
For `CN(CC(=O)Nc1cc(-n2nnnc2C2CC2)ccc1F)C1CCC1`, the cytotoxicity at 70.5 h is -8.29%.
With `CN1CCOC(C(=O)Nc2nc(-c3ccc4c(c3)CCC4)n[nH]2)C1` (configuration not stated) the figure was -6.75%.
The same measure for `CC(Cc1ccco1)NS(=O)(=O)N1CCCCCC1` (configuration not stated): -8.2%; for `CC(CN1CCCC1=O)NC(=O)Nc1ccccc1Cn1cccn1` (configuration not stated): -5.84%.
With `CC(CN1CCCC1=O)NC(=O)Nc1cccnc1-n1cccn1` (configuration not stated) the figure was 35.4%; with `Cc1cc(-n2c(C)cn(CN(C)C3CCS(=O)(=O)C3)c2=O)no1` (configuration not stated), -14.6%; with `COC(=O)[C@H](C)NC(=O)c1nc(C2CC2)n(-c2ccccc2Cl)n1`, -11.3%.
Turning to `CN(C)C(=O)CNC(=O)c1nc(C2CC2)n(-c2ccccc2Cl)n1`, the cytotoxicity at 70.5 h was -13.7%.
In the case of `Cc1ccc(C2CSCCN2C(=O)c2cccnc2)cc1` (configuration not stated), the cytotoxicity at 70.5 h is -9.38%.
The same measure for `CNC(=O)Cc1ccc(NC(=O)NC2(c3cccc(F)c3)CC2)cc1`: -3.37%; for `CC(O)CCN(C)C(=O)Nc1ccc(Br)cc1` (configuration not stated): 26.9%; for `CCC(C)(C)C(=O)Nc1ccc2ccn(CC(=O)NC)c2c1`: -0.594%.
The same measure for `CNC(=O)Cn1ccc2ccc(NC(=O)C(C)C)cc21`: -16.4%; for `COc1ccc(-n2cc(CNC(=O)c3ccccn3)nn2)cc1`: -8.76%.
`CN(CC(O)C1CC1)C(=O)Nc1cc(F)cc(Br)c1` (configuration not stated): the cytotoxicity at 70.5 h was 26.3%.
With `CNC(=O)Cn1ccc2ccc(NC(=O)NC(C)C(C)C)cc21` (configuration not stated) the figure was -9.08%; with `O=S1(=O)CCN(CCCc2ccc(Cl)cc2)CC1`, -6.76%.
With `CNC(=O)C(C)CN(C)C(=O)Nc1cc(F)cc(Br)c1` (configuration not stated) the figure was 1.41%; with `Clc1ccc(C(CNCc2ccncc2)n2cccn2)cc1` (configuration not stated), -1.54%; with `CC(CN1CCCC1=O)NC(=O)NCc1ccccc1-n1cccn1` (configuration not stated), -11.4%.
The same measure for `CC(=O)Nc1ccc(SCC(O)COCc2ccccc2)cc1` (configuration not stated): -12.4%; for `OCCN(Cc1ccno1)Cc1cc(Br)ccc1F`: -14.1%.
As for `CCOCC1CCN(C(=O)C(c2c(F)cccc2F)N(C)C)CC1` (configuration not stated), the cytotoxicity at 70.5 h turned out to be 0.534%.
With `O=C1CC[C@H](C(=O)N(CCc2ccccc2)C2CCOC2)N1` (some centres not stated) the figure was 24.8%.
The same measure for `OCCOCCN1CCCC1c1cccc(Cl)c1` (configuration not stated): -3.17%; for `CC(NC1(CNS(=O)(=O)N(C)C)CCCC1)c1ccccc1` (configuration not stated): -13.2%; for `CC(SCCC(=O)NC(N)=O)c1ccccc1F` (configuration not stated): -7.35%.
Consider `CC(SCCC(=O)NC(N)=O)c1ccc(F)cc1F` (configuration not stated), for which the cytotoxicity at 70.5 h is -14.8%.
Consider `CCCC1CCCN(C(=O)CNC(=O)c2ccoc2C)CC1` (configuration not stated), for which the cytotoxicity at 70.5 h was -18.9%.
Turning to `CC(C)c1noc(CCC(=O)NCC(c2ccco2)N2CCCC2)n1` (configuration not stated), the cytotoxicity at 70.5 h was -7.17%.
The same measure for `Cc1ccc(-c2nnc(NC(=O)c3ccn(C)c(=O)c3)[nH]2)s1`: -19.1%; for `CC(=O)N1Cc2ccccc2C[C@H]1C(=O)N(C)CCc1ccccn1`: 19.3%.
For the molecule `O=C(C1CCS(=O)(=O)C1)N1CCC(=Cc2cccc(F)c2)CC1` (configuration not stated), the cytotoxicity at 70.5 h was -9.56%.
With `CCC(C)(O)CNC(=O)Nc1ccc(C)cc1Br` (configuration not stated) the figure was -5.82%; with `N#Cc1cccc(CS(=O)(=O)NC(Cc2ccccc2)C(N)=O)c1` (configuration not stated), -13.1%; with `CCn1cc(C(=O)N(C)Cc2c(F)cccc2Cl)cn1`, -2.9%.
With `Cc1nc(-c2ccc(S(=O)(=O)N3CCSC3)cc2)co1` the figure was -10.2%; with `COc1ccc(S(=O)(=O)NC(=O)c2cscn2)cc1C`, -13.6%; with `CN1CCCC(N(C)C(=O)c2ccc(NC(=O)c3cc[nH]n3)cc2)C1` (configuration not stated), -0.159%.
With `CC(CNC(=O)CCc1ccccn1)c1ccsc1` (configuration not stated) the figure was -16.6%; with `Cc1ccc(C(=O)N2CCOCC2)cc1NCc1ccsc1`, -12.3%.
In the case of `Cc1ccc(C2CN(C(=O)NCc3nnc4ccccn34)CCO2)o1` (configuration not stated), the cytotoxicity at 70.5 h was -10.6%.
With `N#Cc1ccc(N2CCC(OC3CCOCC3)CC2)cc1Cl` the figure was 1.95%.
With `COc1ccc(Br)cc1CN(C)C(C)c1nc(C)no1` (configuration not stated), the cytotoxicity at 70.5 h is -20.1%.
The same measure for `CCN(CC)CCCC(C)NC(=O)c1ccccc1-n1cccn1` (configuration not stated): -9.46%; for `CC(C)COc1ccccc1C(N)CC(C)C` (configuration not stated): -10.1%; for `CC(O)C1CCN(c2cc(Cl)ccc2C#N)CC1` (configuration not stated): -14.2%.
The same measure for `CCOCCC(=O)NCC(C)c1ccsc1` (configuration not stated): -5.93%.
Consider `N#CCCN(Cc1ccco1)C(=O)CCCc1ccccc1`, for which the cytotoxicity at 70.5 h is -4.22%.
As for `CC(=O)N1CCC(C(=O)N2CCC(=Cc3cccc(F)c3)CC2)CC1`, the cytotoxicity at 70.5 h is -11.3%.
The same measure for `CCNC(=O)CS(=O)(=O)NC1CCC(C)CC1` (configuration not stated): -14.8%.
Regarding `NC(=O)c1cnn2c1NCC(CNC1(c3ccccc3)CCC1)C2` (configuration not stated), the cytotoxicity at 70.5 h is -9.04%.
Turning to `NC1CCN(C(=O)c2c(F)cccc2Br)CC1`, the cytotoxicity at 70.5 h was -15.6%.
